Assay results taken from paper PMC6312359, “Diisopropylphenyl-imidazole (DII): A new compound that exerts anthelmintic activity through novel molecular mechanisms” (PLoS Neglected Tropical Diseases, 2018).
Converted amounts (≈) assume the structure as drawn. “And” between values parts separate entries of the source, which are not always exact repeats. Equal values may be shown once. Read-outs that look alike come from different tables or passages of the source. Values belong to the molecule of their own block, whether it stands above or below them.

What was measured:
[1] = test system: Staphylococcus aureus ATCC 25923; assay: Minimum inhibitory and bactericidal concentrations, microdilution; format: cell-based; conditions: ATCC25923, 24 h at 37°C; for MBC: read-out: MBC S. aureus; for MIC: read-out: MIC S. aureus
Procedure: (§1) The strains used in this study were Escherichia coli ATCC 25922 and Staphylococcus aureus ATCC 25923, kindly provided by Dr. Ziegler (Bacillus Genetic Stock Center, The Ohio State University). Stocks were stored in Mueller Hinton Broth (MHB, Biokar Diagnostics, France) supplemented with glycerol 20% at -70°C. Before running each test, the strains were incubated for 48 h at 37°C in MHB. Finally, the bacterial strains were sub-cultured in MHB at 37°C for 24 h. The solutions of antimicrobial agents and imidazolium salts were prepared following the Clinical and Laboratory Standards Institute (CLSI) guidelines for determination of Minimum Inhibitory Concentrations by the microdilution method (CLSI 2009). […] Cultures were incubated as described above and adjusted to OD625nm ~ 0.08–0.13 by the direct colony suspension method in saline water and finally adjusted to 2–8 10^5 CFU/ml by diluting 1:150 in MHB before testing. A volume of 100 μl of each sample dilution in saline water was transferred to the microplate well. Finally, an equal volume of the inoculum was added. The MIC was the lowest concentration at which there was no visible growth when compared with controls after 24 h at 37°C. To assess the minimum bactericidal concentration (MBC), 20 μl aliquots were taken from the wells where no visible growth was observed, seeded on petri dishes and covered with MH agar (MHA) at 45°C. The compounds were considered bactericidal at the concentration at which no visible colony was observed on the plate after 24 h at 37°C. All conditions were run at least in duplicate. The results were obtained from at least 3 independent experiments.

[2] = test system: Escherichia coli ATCC 25922; assay: as above; format: cell-based; conditions: 24 h at 37°C; for MBC / MIC: Escherichia coli, ATCC25922
Procedure: as §1

C. elegans [3] = test system: C. elegans; parameters: method as in PMID 21195075, PMID 23869246; conditions: 24 h, even at millimolar concentrations, ref [39], [41]; cited from earlier work
C. elegans [4] = assay: Egg-laying assays; format: in vivo, Caenorhabditis elegans; conditions: gravid worms
Procedure: Age-synchronized gravid worms were transferred to solid NGM plates containing different drug concentrations (100–300 μM). Each concentration was evaluated in triplicate and DMSO was used as a control. After 1 h, the number of laid eggs per worm was counted. This experiment was independently repeated three times.

C. elegans [5] = assay: Worm cut preparation paralysis; format: in vivo, Caenorhabditis elegans; conditions: 10 min; DII 600 μM, levamisole 10 μM
Procedure: Cutworm assays were performed as previously described with slight modifications. Briefly, synchronized young adult animals were mounted in a glass microscope slide containing Artificial Perienteric Fluid (APF) (67 mM NaCl, 67 mM NaCH3COOH, 3 mM KCl, 15.7 mM MgCl2, 3 mM CaCl2 and 5 mM Tris, pH 7.6). 10 animals were severed between the middle and tail, approximately two-thirds from the anterior end. Worms were subsequently transferred to a multi-well plate containing APF or drug-APF and paralysis was evaluated after 10 minutes. All experiments were performed at least three times.

C. elegans [6] = assay: Body length measurements; format: in vivo, Caenorhabditis elegans; conditions: 600 μM, 2 h
Procedure: Vehicle (0.75% DMSO) was used as a control. After 2 h, images were acquired and body length was measured using FIJI-ImageJ software. At least three independent experiments were analyzed.

C. elegans [7] = assay: Acute paralysis assays; format: in vivo, Caenorhabditis elegans
Procedure: Acute paralysis assays were carried out in microtiter plates containing the drug dissolved in M9 buffer. […] Each drug concentration was tested in two wells (containing 30 animals each) within a single experiment. […] The experiment was independently repeated at least three times.

E. coli OP50 = assay: OP50 growth in screening wells (qualitative); format: cell-based, Escherichia coli; conditions: 150 μg/ml, qualitative observation
Excerpt: During the screening assays, we qualitatively noticed that OP50 growth was inhibited in wells containing MI. This effect was not observed with DII. To quantify this observation, we determined minimum inhibitory concentration (MIC) and minimum bactericidal concentration (MBC) of both compounds in E. coli cultures (Fig 2A). […] Similar values were obtained when we performed these assays on S. aureus, a Gram-positive bacteria (Fig 2A). […] As we are here screening for specific anthelmintic activity, we restricted our further analysis to compounds that appear to exert nematicidal action without obvious lethal effects on other organisms. Therefore, we focused our studies only on DII, relegating the evaluation of MI as a potential anthelmintic drug.

C. elegans [8] = assay: Screening imidazole compounds: worm survival; format: in vivo, Caenorhabditis elegans; conditions: 150 μg/ml, 72 h, 20°C, young adult wild-type worms, liquid medium (S-Basal) with E. coli OP50
Procedure: 100–150 young adult wild-type worms were exposed to these compounds (150 μg/ml) in liquid medium (S-Basal) containing E. coli OP50. Micromolar concentrations for each compound are: 487 μM for 1, 428 μM for 2, 410 μM for 3, 375 μM for 4, 789 μM for 5, 735 μM for 6, 389 μM for 7, 319 μM for 8, 263 μM for 9, 806 μM for 10 and 657 μM for 11. Compounds were dissolved in water or DMSO according to their solubility. After 72 h, animal survival was analyzed. An animal was considered dead if it made no movement in response to gentle prodding with a worm pick. At least three independent experiments were analyzed.
We exposed 100–150 young adult worms to these compounds in liquid medium (S-Basal) containing the bacteria E. coli OP50 as a food source. After 72 h at 20°C, we analyzed worm survival (Fig 1B). […] The drug concentration chosen for this screening was 150 μg/ml, which is similar to those used in other screening studies. The corresponding molar concentration for each compound is detailed in Materials and Methods. Depending on their solubility properties, the compounds were dissolved either in water or DMSO (up to 0.75% final concentration).

Molecule: O=C(O)c1cn(C2CC2)c2cc(N3CCNCC3)c(F)cc2c1=O [cipro., ciprofloxacin, reference compound]
- MBC [1]: 1 mg/L (≈ 3.02 µM)
- MIC [1]: 0.5 mg/L (≈ 1.51 µM)
- MBC [2]: 1 mg/L (≈ 3.02 µM)
- MIC [2]: 0.25 mg/L (≈ 0.754 µM)

Molecule: CN1CCCN=C1/C=C/c1cccs1 [pyrantel]
- C. elegans death (C. elegans [3]): less than 25%

- EC50 (C. elegans [7]; 10 min, L4 wild-type, Fig 4B, read-out: EC50 acute paralysis): 63.6 µM
- EC50 (C. elegans [7]; Caenorhabditis elegans, 10 min, Fig 4E black circle (probably levamisole alone), 10 min, read-out: EC50 levamisole paralysis): 60 ± 1.12 µM
- EC50 (C. elegans [7]; Caenorhabditis elegans, 10 min, Fig 4E dark pink triangle up (constant DII, probably 100 μM), 10 min, read-out: EC50 levamisole paralysis in presence of DII): 66 ± 1.15 µM
- EC50 (C. elegans [7]; Caenorhabditis elegans, 10 min, Fig 4E light pink triangle down (constant DII, probably 200 μM), 10 min, read-out: EC50 levamisole paralysis in presence of DII): 62.2 ± 1.14 µM
- EC50 (C. elegans [7]; Caenorhabditis elegans, 10 min, L4 wild-type, Fig 4B, read-out: EC50 acute paralysis): 63.6 ± 1.1 µM
- EC50 (C. elegans [7]; Caenorhabditis elegans, 24 h, S5D Fig pink triangle (probably DII 100 μM for 24 h and during assay), read-out: EC50 levamisole paralysis after DII pre-exposure): 82.2 ± 1.39 µM
- EC50 (C. elegans [7]; Caenorhabditis elegans, S5D Fig black circle (probably control without DII), read-out: EC50 levamisole paralysis): 82.4 ± 1.23 µM
Molecule: c1ccc([C@H]2CN3CCSC3=N2)cc1 [levamisole]
- laid eggs in 1 h, fold more than controls (C. elegans [4]; 100 μM): 3.8 fold
- laid eggs in 1 h, fold more than controls (C. elegans [4]; 300 μM): 3.2 fold
- paralysis in cut specimens (C. elegans [5]): paralysis is achieved at very low levamisole concentrations
- body length (C. elegans [6]): worm shrinkage
- paralysis in CB407 unc-49(e407)III hypersensitive strain (C. elegans [7]; 100 μM, 10 min): hypersensitive
- paralyzed animals (C. elegans [7]; 600 μM, 10 min): 100%

Molecule: CCCSc1ccc2nc(NC(=O)OC)[nH]c2c1 [albendazole]
- C. elegans death (C. elegans [3]): less than 25%

Molecule: Cc1cc(C)c(-n2ccnc2)c(C)c1 [Compound 10, mesityl-imidazole]
- OP50 growth in screening wells (E. coli OP50): inhibited
- worm death (C. elegans [8]): 100%
- MBC [1]: > 256 mg/L
- MIC [1]: 128 mg/L (≈ 687 µM)
- MIC E. coli ([2]; listed as MI (10)): 128 mg/L (≈ 687 µM)
- MBC [2]: > 256 mg/L
- MIC [2]: 128 µg/mL and 680 µM

Molecule: ivermectin
- C. elegans death (C. elegans [3]): less than 25%

Molecule: CC(=O)Oc1ccccc1C(=O)Nc1ncc([N+](=O)[O-])s1 [nitazoxanide]
- C. elegans death (C. elegans [3]): less than 25%
